EP0308190A2, “Ultra mild skin cleansing toilet bar with selected mixed polymers” (THE PROCTER & GAMBLE COMPANY, priority 1987, dated 1989)

Test system: skin epidermis

Q: For Cocoyl Isethionate, which “Relative Skin Barrier Penetration Value” is on record?
A: 40
